# Patent US20240000899A1, “THERAPEUTIC USEFUL AGAINST ANTIMICROBIAL RESISTANT AGENTS” (priority 2022, published 2024)
# Assays:
# [1] = 4.0% w/v concentration; cited from earlier work
# [2] = aerosolized, pH range of 1.5 to 2.0
# Excerpt: Additionally, the low pH acid formulation needs to provide no or minimum deleterious effect to host tissues.
# [3] = system: mouse fibroblast cells
# [4] = system: human coronavirus; settings: therapeutic concentration (~1.7 pH), in vitro suspension tests
# [5] = system: HepG2 (human liver) cell culture; experiment: Modified cytotoxicity protocol: residual anions of neutralized acid formulations; assay type: cell-based; settings: for Cytotoxicity of residual anions, conclusion in words: pH 1.5
# Protocol: Purpose: A modified cytotoxicity protocol was developed focusing on the cytotoxicity of the residual anions of the acid formulations. Twenty different acids formulations were tested, each in the range of 1.95 to 1.5 pH. Each formulation was diluted with distilled water to hydronium concentrations of 11.22 mM (pH 1.95), […] (pH 1.85), 19.95 mM (pH 1.70), 25.12 mM (pH 1.60), and 31.62 mM (pH 1.50). It was then titrated with NaOH to 7.4 pH and applied to HepG2 (human liver) cell culture in triplicate replicates.
# [6] = system: Staphylococcus aureus ATCC 6538; experiment: Modified ASTM E2315 test of low pH therapeutic with AMPs, acid neutralized after one minute; assay type: cell-based
# Excerpt: Since the reaction speed of the two different MOAs are different, a modified test protocol was developed, which is summarized below. • a. […] Heretofore, it has been believed that AMPs are unstable in low pH environments. Mixture of dry powder immediately prior to use is believed to address concerns regarding minimization of in vitro stability. • b. The prepared AMP solution was then mixed with the bacteria containing media. After one minute the acid solution was neutralized. This simulates the short antimicrobial period for the elevated proton concentration in vivo. The bacteria population was measured to determine efficacy after one minute. • c. The AMPs retained in the solution are not expected to stop their antimicrobial activity after acid neutralization, so a second bacteria population measurement was made after 24 hours. [table]
compound,measurement,setting,value
OB(O)O [Boric acid],pH,[1],4.8-5.0
O=S(=O)(O)O [sulfuric acid],Harm to host respiratory tissues in vivo,[2],not harmful
same,Cytotoxicity,[3],no cytotoxicity
same,Time to inactivating and/or reducing concentration of human coronavirus,[4],≤ 1 min
Hydroxyacetic + HCl [Example 15],% Viability @ pH 1.9,[5],117%
Hydroxyacetic +. Sulfuric [Example 8],% Viability @ pH 1.9,[5],72.7%
Isoacorbic + sulfuric [Example 17],% Viability @ pH 1.9,[5],89.3%
Isoascorbic + HCl [Example 18],"Cytotoxicity of residual anions, conclusion in words",[5],least toxic
same,% Viability @ pH 1.9,[5],104%
"LL-37 [Example 38, reference compound]",1-min Efficacy (log),"[6]; bacteria population after one minute, then acid neutralized, no soiling, single-replicant",4.15 log
same,"Efficacy on S. aureus, conclusion in words",[6]; comparison of Table 3 examples,highly effective
same,24-hour Efficacy (log),"[6]; second bacteria population measurement after 24 hours, acid neutralized after one minute",>6.45 log
Sulfuric [Example 3],"Cytotoxicity of residual anions, conclusion in words",[5],least toxic
same,% Viability @ pH 1.9,[5],140%
